In patent publication US20200325483A1, “SAFE DELIVERY OF CRISPR AND OTHER GENE THERAPIES TO LARGE FRACTIONS OF SOMATIC CELLS IN HUMANS AND ANIMALS” (priority 2016, published 2020):
Where two headings read alike, the source gives them in different places. Ends that are not written are not given here.

Assays:
TNFα = conditions: cited from earlier work
Rodents = conditions: cited from earlier work
Dogs = conditions: cited from earlier work
mice [1] = conditions: cited from earlier work
humans = conditions: cited from earlier work
mice [2] = experiment: LPS LD50 in mouse model; format: in vivo
Method: In mouse model the LD50 of LPS depends on liver protein synthesis. […] However, in mice pretreated with β-galactosamine to inhibit liver protein synthesis, the mouse LD50 is approximately 5 nanograms (200 ng/kg), 30,000 times less. By comparison, normal humans show reactions at 2-4 nanograms of LPS per kilogram. The human LD50 for LPS is below 5 micrograms per kilogram, three orders of magnitude lower than mice. Humans are […] larger yet die at doses only double the dose that kills a 25-gram mouse. […] Human LPS sensitivity is believed to be due to mutations in sialic acid binding Ig-like lectins (siglecs). Phenotypically, knockouts of siglecs produce hyper-reactive immune system components. The missing siglec-13 and inactivated siglec-17 that are active in other primates affects control over TLR4. TLR4 is the receptor for LPS. It is also the target for HMGB1, in DAMP signaling.

sepsis [3] = conditions: in vivo; cited from earlier work
sepsis [4] = conditions: animal studies, as long as there is not an underlying infection; cited from earlier work

Molecule: COc1cc(CC(C)N)c(OC)cc1I (stereo not shown) [DOI, 2,5-Dimethoxy-4-iodoamphetamine]
- TNFα inhibition (in words) (TNFα): strongest TNFα inhibitor known

Molecule: Polymyxin B sulfate
- tolerated dose (Rodents): ≥ 100 mg/kg
- dose at which animals begin dying (Dogs): 8 mg/kg

Molecule: lipopolysaccharide [LPS]
- LPS LD50 (mice [1]; mice pretreated with β-galactosamine to inhibit liver protein synthesis, per animal): approximately 5 nanograms
- LPS LD50 (mice [1]; normal 25 gram mice, per animal): approximately 150 micrograms
- LPS LD50 (mice [1]; normal 25 gram mice): ~6 mg/kg
- time for LD50 dose to complete its course (mice [1]; normal 25 gram mice): 35 h
- LPS LD50 (humans; average adult human, per person): 300 micrograms
- LPS LD50 (humans; human): below 5 micrograms per kilogram
- LPS dose at which reactions are shown (humans; normal humans): 2-4 nanograms of LPS per kilogram
- fold lower LD50 in β-galactosamine pretreated vs normal mice (mice [2]): 30,000 times

Molecule: ghrelin: Ghrelin, injected to rescue from sepsis (GSSFLSPEHQRVQQRKESKKPPAKLQPR; ends and bridges not checked; UniProt Q9UBU3 24-51, looked up)
- rescue from sepsis (in words) (sepsis [3]): rescue from sepsis with remarkable effect

B1: IL-10: IL-10, injected to temper sepsis (protein, UniProt P22301 19-178, looked up)
Interleukin-10: SPGQGTQSENSCTHFPGNLPNMLRDLRDAFSRVKTFFQMKDQLDNLLLKESLLEDFKGYLGCQALSEMIQFYLEEVMPQAENQDPDIKAHVNSLGENLKTLRLRLRRCHRFLPCENKSKAVEQVKNAFNKLQEKGIYKAMSEFDIFINYIEAYMTMKIRN
- effect on sepsis (in words) (sepsis [4]): effective in animal studies at tempering sepsis
